± gives the expanded uncertainty stated by the source.
Tests used:
[1] = xn = mol fraction of the nth substance listed; settings: 101 kPa, Liquid; for speed of sound: Linear variable-path acoustic interferometer
[2] = refractive index (Na D-line) (dimensionless); xn = mol fraction of the nth substance listed; settings: 101 kPa, Liquid

In the case of `CC1CCCCC1` [methylcyclohexane] + CC(C)CCO, the speed of sound ([1]; 298.15 K, x1 = 1) is reported as 1217 ± 4 m/s, the mass density ([1]; 298.15 K, x1 = 1) is reported as 764.99 ± 7.7 kg/m3 and the viscosity ([1]; 298.15 K, x1 = 1) is reported as 0.6757 ± 0.0095 mPa·s. It also gave a mass density ([1]; 303.15 K, x1 = 1) of 760.66 ± 7.6 kg/m3, a viscosity ([1]; 303.15 K, x1 = 1) of 0.631 ± 0.0089 mPa·s and a mass density ([1]; 308.15 K, x1 = 1) of 756.3 ± 7.6 kg/m3. The viscosity ([1]; 308.15 K, x1 = 1) was 0.5902 ± 0.0085 mPa·s, the refractive index ([2]; 298.15 K, x1 = 1) was 1.4217 ± 0.0013 and the refractive index ([2]; 303.15 K, x1 = 1) was 1.4192 ± 0.0013. For the same molecule, the refractive index ([2]; 308.15 K, x1 = 1) was 1.4163 ± 0.0013.
Molecule `CC(C)O` [propan-2-ol] + CC1CCCCC1 has a speed of sound ([1]; 298.15 K, x2 = 0) of 1144 ± 4 m/s, a mass density ([1]; 298.15 K, x2 = 0) of 781.05 ± 7.8 kg/m3 and a viscosity ([1]; 298.15 K, x2 = 0) of 2.076 ± 0.024 mPa·s. It also gave a mass density ([1]; 303.15 K, x2 = 0) of 776.79 ± 7.8 kg/m3, a viscosity ([1]; 303.15 K, x2 = 0) of 1.786 ± 0.021 mPa·s and a mass density ([1]; 308.15 K, x2 = 0) of 772.43 ± 7.7 kg/m3. It also gave a viscosity ([1]; 308.15 K, x2 = 0) of 1.532 ± 0.018 mPa·s, a refractive index ([2]; 298.15 K, x2 = 0) of 1.3765 ± 0.0012 and a refractive index ([2]; 303.15 K, x2 = 0) of 1.3741 ± 0.0012. The refractive index ([2]; 308.15 K, x2 = 0) was 1.3716 ± 0.0012.
With `CC1CCCCC1` [methylcyclohexane] + CC(C)O the speed of sound ([1]; 298.15 K, x1 = 0.1001) was 1151 ± 4 m/s, the speed of sound ([1]; 298.15 K, x1 = 0.2033) was 1159 ± 4 m/s and the speed of sound ([1]; 298.15 K, x1 = 0.3065) was 1166 ± 4 m/s. For the same molecule, the speed of sound ([1]; 298.15 K, x1 = 0.4049) was 1173 ± 4 m/s, the speed of sound ([1]; 298.15 K, x1 = 0.5034) was 1181 ± 4 m/s and the speed of sound ([1]; 298.15 K, x1 = 0.6022) was 1188 ± 4 m/s. It also gave a speed of sound ([1]; 298.15 K, x1 = 0.7009) of 1195 ± 4 m/s, a speed of sound ([1]; 298.15 K, x1 = 0.8021) of 1203 ± 4 m/s and a speed of sound ([1]; 298.15 K, x1 = 0.9032) of 1210 ± 4 m/s. The speed of sound ([1]; 298.15 K, x1 = 1) was 1217 ± 4 m/s, the mass density ([1]; 298.15 K, x1 = 0.1001) was 777.28 ± 7.8 kg/m3 and the viscosity ([1]; 298.15 K, x1 = 0.1001) was 1.634 ± 0.02 mPa·s. For the same molecule, the mass density ([1]; 298.15 K, x1 = 0.2033) was 774.39 ± 7.8 kg/m3, the viscosity ([1]; 298.15 K, x1 = 0.2033) was 1.35 ± 0.017 mPa·s and the mass density ([1]; 298.15 K, x1 = 0.3065) was 771.5 ± 7.7 kg/m3. The viscosity ([1]; 298.15 K, x1 = 0.3065) was 1.117 ± 0.014 mPa·s, the mass density ([1]; 298.15 K, x1 = 0.4049) was 769.55 ± 7.7 kg/m3 and the viscosity ([1]; 298.15 K, x1 = 0.4049) was 0.9645 ± 0.012 mPa·s. It also gave a mass density ([1]; 298.15 K, x1 = 0.5034) of 767.6 ± 7.7 kg/m3, a viscosity ([1]; 298.15 K, x1 = 0.5034) of 0.8434 ± 0.011 mPa·s and a mass density ([1]; 298.15 K, x1 = 0.6022) of 766.22 ± 7.7 kg/m3. The viscosity ([1]; 298.15 K, x1 = 0.6022) was 0.7815 ± 0.01 mPa·s, the mass density ([1]; 298.15 K, x1 = 0.7009) was 765.17 ± 7.7 kg/m3 and the viscosity ([1]; 298.15 K, x1 = 0.7009) was 0.7197 ± 0.0098 mPa·s. For the same molecule, the mass density ([1]; 298.15 K, x1 = 0.8021) was 764.75 ± 7.7 kg/m3, the viscosity ([1]; 298.15 K, x1 = 0.8021) was 0.703 ± 0.0097 mPa·s and the mass density ([1]; 298.15 K, x1 = 0.9032) was 764.43 ± 7.7 kg/m3. The viscosity ([1]; 298.15 K, x1 = 0.9032) was 0.6864 ± 0.0095 mPa·s, the mass density ([1]; 298.15 K, x1 = 1) was 764.99 ± 7.7 kg/m3 and the viscosity ([1]; 298.15 K, x1 = 1) was 0.6757 ± 0.0095 mPa·s. The mass density ([1]; 303.15 K, x1 = 0.1001) was 772.86 ± 7.7 kg/m3, the viscosity ([1]; 303.15 K, x1 = 0.1001) was 1.441 ± 0.017 mPa·s and the mass density ([1]; 303.15 K, x1 = 0.2033) was 769.88 ± 7.7 kg/m3. The viscosity ([1]; 303.15 K, x1 = 0.2033) was 1.197 ± 0.015 mPa·s, the mass density ([1]; 303.15 K, x1 = 0.3065) was 766.95 ± 7.7 kg/m3 and the viscosity ([1]; 303.15 K, x1 = 0.3065) was 1.004 ± 0.013 mPa·s. It also gave a mass density ([1]; 303.15 K, x1 = 0.4049) of 764.95 ± 7.7 kg/m3, a viscosity ([1]; 303.15 K, x1 = 0.4049) of 0.8716 ± 0.011 mPa·s and a mass density ([1]; 303.15 K, x1 = 0.5034) of 763.01 ± 7.7 kg/m3. It also gave a viscosity ([1]; 303.15 K, x1 = 0.5034) of 0.7708 ± 0.01 mPa·s, a mass density ([1]; 303.15 K, x1 = 0.6022) of 761.62 ± 7.6 kg/m3 and a viscosity ([1]; 303.15 K, x1 = 0.6022) of 0.7193 ± 0.0098 mPa·s. For the same molecule, the mass density ([1]; 303.15 K, x1 = 0.7009) was 760.61 ± 7.6 kg/m3, the viscosity ([1]; 303.15 K, x1 = 0.7009) was 0.6681 ± 0.0092 mPa·s and the mass density ([1]; 303.15 K, x1 = 0.8021) was 760.25 ± 7.6 kg/m3. It also gave a viscosity ([1]; 303.15 K, x1 = 0.8021) of 0.6546 ± 0.0091 mPa·s, a mass density ([1]; 303.15 K, x1 = 0.9032) of 759.88 ± 7.6 kg/m3 and a viscosity ([1]; 303.15 K, x1 = 0.9032) of 0.641 ± 0.009 mPa·s. For the same molecule, the mass density ([1]; 303.15 K, x1 = 1) was 760.66 ± 7.6 kg/m3, the viscosity ([1]; 303.15 K, x1 = 1) was 0.631 ± 0.0089 mPa·s and the mass density ([1]; 308.15 K, x1 = 0.1001) was 768.43 ± 7.7 kg/m3. It also gave a viscosity ([1]; 308.15 K, x1 = 0.1001) of 1.248 ± 0.015 mPa·s, a mass density ([1]; 308.15 K, x1 = 0.2033) of 765.38 ± 7.7 kg/m3 and a viscosity ([1]; 308.15 K, x1 = 0.2033) of 1.044 ± 0.013 mPa·s. It also gave a mass density ([1]; 308.15 K, x1 = 0.3065) of 762.32 ± 7.6 kg/m3, a viscosity ([1]; 308.15 K, x1 = 0.3065) of 0.8905 ± 0.011 mPa·s and a mass density ([1]; 308.15 K, x1 = 0.4049) of 760.33 ± 7.6 kg/m3. The viscosity ([1]; 308.15 K, x1 = 0.4049) was 0.7785 ± 0.01 mPa·s, the mass density ([1]; 308.15 K, x1 = 0.5034) was 758.34 ± 7.6 kg/m3 and the viscosity ([1]; 308.15 K, x1 = 0.5034) was 0.698 ± 0.0095 mPa·s. For the same molecule, the mass density ([1]; 308.15 K, x1 = 0.6022) was 757 ± 7.6 kg/m3, the viscosity ([1]; 308.15 K, x1 = 0.6022) was 0.6573 ± 0.009 mPa·s and the mass density ([1]; 308.15 K, x1 = 0.7009) was 756 ± 7.6 kg/m3. It also gave a viscosity ([1]; 308.15 K, x1 = 0.7009) of 0.6167 ± 0.0086 mPa·s, a mass density ([1]; 308.15 K, x1 = 0.8021) of 755.69 ± 7.6 kg/m3 and a viscosity ([1]; 308.15 K, x1 = 0.8021) of 0.6061 ± 0.0085 mPa·s. For the same molecule, the mass density ([1]; 308.15 K, x1 = 0.9032) was 755.37 ± 7.6 kg/m3, the viscosity ([1]; 308.15 K, x1 = 0.9032) was 0.5955 ± 0.0085 mPa·s and the mass density ([1]; 308.15 K, x1 = 1) was 756.3 ± 7.6 kg/m3. For the same molecule, the viscosity ([1]; 308.15 K, x1 = 1) was 0.5902 ± 0.0085 mPa·s, the refractive index ([2]; 298.15 K, x1 = 0.1001) was 1.3822 ± 0.0012 and the refractive index ([2]; 298.15 K, x1 = 0.2033) was 1.3879 ± 0.0012. The refractive index ([2]; 298.15 K, x1 = 0.3065) was 1.3936 ± 0.0012, the refractive index ([2]; 298.15 K, x1 = 0.4049) was 1.3983 ± 0.0012 and the refractive index ([2]; 298.15 K, x1 = 0.5034) was 1.4029 ± 0.0012. The refractive index ([2]; 298.15 K, x1 = 0.6022) was 1.4068 ± 0.0013, the refractive index ([2]; 298.15 K, x1 = 0.7009) was 1.4106 ± 0.0013 and the refractive index ([2]; 298.15 K, x1 = 0.8021) was 1.4145 ± 0.0013. It also gave a refractive index ([2]; 298.15 K, x1 = 0.9032) of 1.4184 ± 0.0013, a refractive index ([2]; 298.15 K, x1 = 1) of 1.4217 ± 0.0013 and a refractive index ([2]; 303.15 K, x1 = 0.1001) of 1.3798 ± 0.0012. The refractive index ([2]; 303.15 K, x1 = 0.2033) was 1.3854 ± 0.0012, the refractive index ([2]; 303.15 K, x1 = 0.3065) was 1.3909 ± 0.0012 and the refractive index ([2]; 303.15 K, x1 = 0.4049) was 1.3956 ± 0.0012. For the same molecule, the refractive index ([2]; 303.15 K, x1 = 0.5034) was 1.4001 ± 0.0012, the refractive index ([2]; 303.15 K, x1 = 0.6022) was 1.404 ± 0.0013 and the refractive index ([2]; 303.15 K, x1 = 0.7009) was 1.408 ± 0.0013. It also gave a refractive index ([2]; 303.15 K, x1 = 0.8021) of 1.4118 ± 0.0013, a refractive index ([2]; 303.15 K, x1 = 0.9032) of 1.4158 ± 0.0013 and a refractive index ([2]; 303.15 K, x1 = 1) of 1.4192 ± 0.0013. For the same molecule, the refractive index ([2]; 308.15 K, x1 = 0.1001) was 1.3775 ± 0.0012, the refractive index ([2]; 308.15 K, x1 = 0.2033) was 1.3829 ± 0.0012 and the refractive index ([2]; 308.15 K, x1 = 0.3065) was 1.3883 ± 0.0012. It also gave a refractive index ([2]; 308.15 K, x1 = 0.4049) of 1.3928 ± 0.0012, a refractive index ([2]; 308.15 K, x1 = 0.5034) of 1.3973 ± 0.0012 and a refractive index ([2]; 308.15 K, x1 = 0.6022) of 1.4013 ± 0.0013. The refractive index ([2]; 308.15 K, x1 = 0.7009) was 1.4053 ± 0.0013, the refractive index ([2]; 308.15 K, x1 = 0.8021) was 1.4092 ± 0.0013 and the refractive index ([2]; 308.15 K, x1 = 0.9032) was 1.413 ± 0.0013. For the same molecule, the refractive index ([2]; 308.15 K, x1 = 1) was 1.4163 ± 0.0013.

Source: the NIST ThermoML archive (doi:10.1016/j.jct.2005.06.011)
